The target in this experiment is T1, human OX2R (Homo sapiens, UniProt O43614).
T1 construct: expressed in transfected cells; host or cells: CHO (Chinese hamster ovary) cells, grown under G418 selection
T1 sequence (O43614 1-444): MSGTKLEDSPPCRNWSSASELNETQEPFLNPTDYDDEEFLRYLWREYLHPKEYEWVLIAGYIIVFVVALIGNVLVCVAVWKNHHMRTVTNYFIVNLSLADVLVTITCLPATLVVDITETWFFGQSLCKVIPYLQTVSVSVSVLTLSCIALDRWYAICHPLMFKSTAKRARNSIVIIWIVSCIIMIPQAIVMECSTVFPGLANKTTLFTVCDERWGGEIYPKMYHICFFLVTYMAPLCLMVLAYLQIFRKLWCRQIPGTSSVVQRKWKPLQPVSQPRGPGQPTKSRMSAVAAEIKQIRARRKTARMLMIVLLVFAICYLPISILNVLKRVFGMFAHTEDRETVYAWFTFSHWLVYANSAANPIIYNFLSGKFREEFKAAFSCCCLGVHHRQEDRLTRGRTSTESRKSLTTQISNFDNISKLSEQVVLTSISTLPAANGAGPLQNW
Put plainly: IP-One (IPOne) orexin receptor agonist assay in CHO cells expressing human OX2R. The settings on record: for EC50: CHO cells expressing human OX2R, IP-One IP-1 detection, 2 hours incubation, four parameter logistic fit, read-out: OX2R Potency, EC50; for % of reference agonist maximal effect: human OX2R, percentage of sample raw value/mean max effect (reference compound at 1 uM with 100% activity). Type of experiment: cell-based. An excerpt:
The utility of the compounds in accordance with the present invention as orexin receptor OX1R and/or OX2R agonists may be readily determined without undue experimentation by methodology well known in the art. Both the OX1R and/or OX2R G-coupled protein receptors (GPCRs) couple through the Gαq signaling pathway, which ultimately promotes calcium mobilization via inositol triphosphate (IP3) production. The half-life of IP-3 is relatively short, being rapidly metabolized to inositol monophosphate (IP-1), which can be readily detected using a commercially available assay kit (IP-One; Cisbio; cat #621PAPEC) coupled with a cell line expressing the target receptor(s) of interest. The utility of the compounds in accordance with the present invention as orexin receptor OX1R and/or OX2R agonists may be determined utilizing this assay.
In a typical experiment, the OX1 and OX2 receptor agonist activity is determined in accordance with the following general experimental method. Chinese hamster ovary (CHO) cells expressing human OX1R and/or the human OX2R were grown in Iscove's modified DMEM containing glutaMAX™, 1% G418, 100 U/mL penicillin, 100 μg/mL streptomycin and 10% heat-inactivated qualified fetal bovine serum (FBS). The OX2R cells were seeded at 10,000 cells/well/50 μL and the OX1R cells were seeded at 20,000 cells/well/50 μL into 384-well white tissue culture plates (Greiner; cat #781080). All cell/media reagents were from GIBCO-Invitrogen Corp. The seeded cell plate(s) were incubated at 37° C. with 5% CO2 and 85% humidity for 20-24 hours. On the day of the assay, assay-ready compound plates were prepared using an acoustic liquid handler (ECHO; Labcyte), which dispensed sufficient volume of test compound stock (10 mM in DMSO) or 100% DMSO to prepare 10 point, ½-log dilutions in a final volume of 202.5 nL/well in all test wells of a 384-well diamond plate (Labcyte). Following completion of assay-ready plates, importantly, the next three steps were performed with minimal delay: 1) 20 μl of 1× stimulation buffer was added to the compound plate using a Multidrop Combi (small cassette, Thermo Fisher Scientific cat #24073290); 2) culture medium was removed from the cell plate using the Bluewasher plate washer (gentle spin; BlueCatBio); 3) 14 μl of compound/stimulation buffer mixture was added to the cell plate using a Bravo liquid handler (Agilent) prior to incubating cell plates at 37° C. with 5% CO2 and 85% humidity for 1 or 2 hours (OX1R and OX2R, respectively). During this incubation, IP-one detection reagents were prepared (38:1:1 lysis buffer:D2:AB-cryptate reagents). Six μL of mixed detection reagents were added to the cell plate using a Multidrop Combi (small cassette, Thermo Fisher Scientific cat #24073290) and incubated 60 minutes at room temperature in the dark. Fluorescence signal was detected using an Envision plate reader (Perkin Elmer) [LANCE/DELFIA Dual Enh (Em: APC 665; Ex: Cy5 620)].
For each compound, data were fit to a four parameter logistic fit (ActivityBase software) and the EC50 was reported as the inflection point of the resulting curve. Percent effect for each test compound was determined as the percentage of sample raw value/mean max effect, where the mean max effect was derived from the mean raw value of 32 control wells per assay plate (using Orexin A (cat #003-30) at 1 μM for human OX1R and a reference compound at 1 uM with 100% activity previously established by comparison to Orexin A for human OX2R). The intrinsic orexin receptor agonist activity of a compound which may be used in the present invention may be determined by these assays.

Structures are written as SMILES.

In general, EC50 refers to the midpoint of the concentration-response curve. As to `CCNC(=O)N1CCC[C@H](c2ccn(C)n2)[C@@H]1CO[C@H]1CC[C@@H](c2ccccc2)CC1` (relative stereo) [Example 27, (CIS)-N-ethyl-3-(1-methyl-1H-pyrazol-3-yl)-2-((((CIS)-4-phenylcyclohexyl)oxy)-methyl)piperidine-1-carboxamide], the 50% effective concentration (EC50) was 3510 nM and the “% of reference agonist maximal effect” value was found to be 82.5%.
As to `CCNC(=O)N1CCC[C@H](c2cc[nH]n2)[C@@H]1CO[C@H]1CC[C@@H](c2ccccc2)CC1` [Example 17, (2R,3S)-N-ethyl-2-((((CIS)-4-phenylcyclohexyl)oxy)methyl)-3-(1H-pyrazol-3-yl)piperidine-1-carboxamide], the 50% effective concentration (EC50) was determined as 27.8 nM and the “% of reference agonist maximal effect” value is on record as 100.1%.
For the compound `COC(=O)CCOC(=O)N1CCC[C@H](c2cc[nH]n2)[C@@H]1CO[C@H]1CC[C@@H](c2ccccc2)CC1` (relative stereo) [Example 114, 3-methoxy-3-oxopropyl (CIS)-2-((((CIS)-4-phenylcyclohexyl)oxy)methyl)-3-(1H-pyrazol-3-yl)piperidine-1-carboxylate], the 50% effective concentration (EC50) stood at 6780 nM and the “% of reference agonist maximal effect” value worked out at 80.5%.
Consider `C[C@@H]1C[C@H]1C(=O)N1CCC[C@H](c2cc[nH]n2)[C@@H]1CO[C@H]1CC[C@@H](c2ccccc2)CC1` (relative stereo) [Example 70, ((TRANS)-2-methylcyclopropyl)((CIS)-2-((((CIS)-4-phenylcyclohexyl)oxy)methyl)-3-(1H-pyrazol-3-yl)piperidin-1-yl)methanone], for which the concentration for a half-maximal effect (EC50) was 292 nM and the “% of reference agonist maximal effect” value is on record as 100.0%.
Take `COC(=O)N1CCC[C@H](c2n[nH]cc2C)[C@@H]1COC1CCN(c2ncc(F)cn2)CC1` (relative stereo) [Example 7, methyl (CIS)-2-(((1-(5-fluoropyrimidin-2-yl)piperidin-4-yl)oxy)methyl)-3-(4-methyl-1H-pyrazol-3-yl)piperidine-1-carboxylate]: the 50% effective concentration (EC50) was 1500 nM and the “% of reference agonist maximal effect” value turned out to be 95.7%.
For `COC(=O)N1CCC[C@H](c2n[nH]cc2C(C)C)[C@@H]1CO[C@H]1CC[C@@H](c2ccccc2)CC1` (single isomer, unassigned) [Example 49] the same measures were 795 nM and 99.0%.
Taken in the same sequence, the figures for `Cc1cnc(COC(=O)N2CCC[C@H](c3cc[nH]n3)[C@@H]2CO[C@H]2CC[C@@H](c3ccccc3)CC2)o1` (relative stereo) [Example 109, (5-methyloxazol-2-yl)methyl (CIS)-2-((((CIS)-4-phenylcyclohexyl)oxy)methyl)-3-(1H-pyrazol-3-yl)piperidine-1-carboxylate] were 5560 nM and 78.6%.
As for `COC(=O)N1C[C@H](C)C[C@H](c2ccn[nH]2)[C@@H]1CO[C@H]1CC[C@@H](c2ccccc2)CC1` (racemic) [Example 41, (+/−) methyl (2R,3S,5R)-5-methyl-2-((((CIS)-4-phenylcyclohexyl)oxy)methyl)-3-(1H-pyrazol-5-yl)piperidine-1-carboxylate], the concentration giving a half-maximal response (EC50) worked out at 2360 nM and the “% of reference agonist maximal effect” value worked out at 95.4%.
In the case of `COC(=O)N1CCC[C@H](c2n[nH]cc2C)[C@@H]1COC1CCN(c2ccccc2)CC1` (relative stereo) [Example 8, Methyl (CIS)-3-(4-methyl-1H-pyrazol-3-yl)-2-(((1-phenylpiperidin-4-yl)oxy)methyl)piperidine-1-carboxylate], the EC50 was determined as 5840 nM and the “% of reference agonist maximal effect” value came to 80.9%.
Consider `CCc1c[nH]nc1[C@H]1CCCN(C(=O)OC)[C@H]1CO[C@H]1CC[C@@H](c2ccccc2)CC1` (single isomer, unassigned) [Example 43], for which the EC50 is 163 nM and the “% of reference agonist maximal effect” value is recorded as 100.4%.
